# Tests used:
# [1] = Solid state stability of the drug substance, assayed by HPLC; assay type: physicochemical; conditions: 1 month
# Method: The solid state stability of the drug substance was determined by storing approximately 1.0 g of the material in a glass bottle at a) 40° C./75% Relative Humidity (RH), open exposure, for 1 month and b) at 50° C., closed, for 1 month. […] Solubility of the Hydrochloride
# [2] = Solubility in water, visual, confirmed by HPLC assay of a saturated solution; assay type: physicochemical; conditions: thermodynamic from solid
# From the text: The visual solubility was confirmed by an HPLC assay of a saturated solution.
smiles,measurement,setting,value
"CN(CCOc1ccc(CC2SC(=O)NC2=O)cc1)c1ccccn1.Cl (centres unmarked) [Hydrochloride, 5-[4-[2-(N-methyl-N-(2-pyridyl)amino)ethoxy]benzyl]thiazolidine-2,4-dione hydrochloride]",HPLC assay for final content,"[1]; 40° C./75% RH, open exposure",100 % initial
same,degradation products (HPLC),"[1]; 40° C./75% RH, open exposure",No significant degradation observed
same,HPLC assay for final content,"[1]; 50° C., closed",101 % initial
same,degradation products (HPLC),"[1]; 50° C., closed",No significant degradation observed
same,solubility,[2],25 mg/mL

# From patent US20070191435A1, “HYDROCHLORIDE SALT OF 5-[4-[2-(N-METHYL-N-(2-PYRIDYL)AMINO)ETHOXY]BENZYL]THIAZOLIDINE-2,4-DIONE” (SmithKline Beecham p.l.c., priority 2000, published 2007)
